Results from patent US20230151003A1, “COMPOUNDS AND METHODS OF USE” (Exelixis, Inc., priority 2020, published 2023).

Assays:
AXL = molecular target: T1, AXL (Homo sapiens, UniProt P30530); experiment: AXL autophosphorylation ELISA in A-172 cells; type: cell-based; conditions: Table 3 Cellular Activities, Gas6-stimulated, phospho-AXL ELISA
T1 construct: endogenous in cells; host or cells: A-172 glioblastoma cells (ATCC #CRL-1620)
T1 sequence (P30530 26-894): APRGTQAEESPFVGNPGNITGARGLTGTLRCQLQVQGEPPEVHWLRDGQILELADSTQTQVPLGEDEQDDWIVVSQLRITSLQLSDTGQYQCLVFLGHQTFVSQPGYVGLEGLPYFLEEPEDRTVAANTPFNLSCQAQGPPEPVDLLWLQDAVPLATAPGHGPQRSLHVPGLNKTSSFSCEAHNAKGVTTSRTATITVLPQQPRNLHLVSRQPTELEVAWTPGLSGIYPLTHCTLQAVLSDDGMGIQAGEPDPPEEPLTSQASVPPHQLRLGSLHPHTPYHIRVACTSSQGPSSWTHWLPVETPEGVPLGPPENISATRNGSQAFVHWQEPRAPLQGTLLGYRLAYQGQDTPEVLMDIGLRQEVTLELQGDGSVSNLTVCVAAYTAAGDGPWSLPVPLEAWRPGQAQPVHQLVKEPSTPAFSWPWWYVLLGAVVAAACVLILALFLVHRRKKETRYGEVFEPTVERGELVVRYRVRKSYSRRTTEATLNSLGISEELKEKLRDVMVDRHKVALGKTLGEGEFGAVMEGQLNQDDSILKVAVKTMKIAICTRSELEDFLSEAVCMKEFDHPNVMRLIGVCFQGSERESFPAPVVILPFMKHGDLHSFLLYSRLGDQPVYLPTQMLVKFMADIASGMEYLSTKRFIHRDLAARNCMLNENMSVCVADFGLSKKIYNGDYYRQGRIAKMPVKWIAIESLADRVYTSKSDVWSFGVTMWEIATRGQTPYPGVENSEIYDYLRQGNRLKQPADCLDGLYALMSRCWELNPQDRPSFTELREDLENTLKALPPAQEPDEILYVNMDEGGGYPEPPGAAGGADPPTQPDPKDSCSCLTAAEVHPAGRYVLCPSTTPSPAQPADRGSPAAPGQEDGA
Summary of the method: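 Phospho-AXL in lysates measured by ELISA after Gas6 stimulation (1 μg/mL, 15 min) of A-172 cells pre-incubated 1 h with an 8-point compound dilution series in 0.3% DMSO after 24 h serum starvation. IC50 by 4-parameter logistic fit, with DMSO-treated and reference-inhibitor wells as 100% and 0% activity.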

Met = Met (Homo sapiens, UniProt P08581); experiment: Met autophosphorylation ELISA in PC-3 cells; type: cell-based; parameters: endogenous in cells; host or cells: PC-3 prostate cancer cells (ATCC #CRL-1435); conditions: Table 3 Cellular Activities, HGF-stimulated, phospho-Met ELISA, read-out: c-Met IC50
Summary of the method: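 IC50 derived by 4-parameter logistic regression of phospho-Met (panTyr) sandwich ELISA signal, scaled between HGF-stimulated DMSO and reference-inhibitor lysates. PC-3 cells, serum-starved 3 h, received an 8-point compound series (0.3% DMSO) for 1 h before 10 min stimulation with 100 ng/mL human HGF.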

Sequence of Met (P08581 25-1390): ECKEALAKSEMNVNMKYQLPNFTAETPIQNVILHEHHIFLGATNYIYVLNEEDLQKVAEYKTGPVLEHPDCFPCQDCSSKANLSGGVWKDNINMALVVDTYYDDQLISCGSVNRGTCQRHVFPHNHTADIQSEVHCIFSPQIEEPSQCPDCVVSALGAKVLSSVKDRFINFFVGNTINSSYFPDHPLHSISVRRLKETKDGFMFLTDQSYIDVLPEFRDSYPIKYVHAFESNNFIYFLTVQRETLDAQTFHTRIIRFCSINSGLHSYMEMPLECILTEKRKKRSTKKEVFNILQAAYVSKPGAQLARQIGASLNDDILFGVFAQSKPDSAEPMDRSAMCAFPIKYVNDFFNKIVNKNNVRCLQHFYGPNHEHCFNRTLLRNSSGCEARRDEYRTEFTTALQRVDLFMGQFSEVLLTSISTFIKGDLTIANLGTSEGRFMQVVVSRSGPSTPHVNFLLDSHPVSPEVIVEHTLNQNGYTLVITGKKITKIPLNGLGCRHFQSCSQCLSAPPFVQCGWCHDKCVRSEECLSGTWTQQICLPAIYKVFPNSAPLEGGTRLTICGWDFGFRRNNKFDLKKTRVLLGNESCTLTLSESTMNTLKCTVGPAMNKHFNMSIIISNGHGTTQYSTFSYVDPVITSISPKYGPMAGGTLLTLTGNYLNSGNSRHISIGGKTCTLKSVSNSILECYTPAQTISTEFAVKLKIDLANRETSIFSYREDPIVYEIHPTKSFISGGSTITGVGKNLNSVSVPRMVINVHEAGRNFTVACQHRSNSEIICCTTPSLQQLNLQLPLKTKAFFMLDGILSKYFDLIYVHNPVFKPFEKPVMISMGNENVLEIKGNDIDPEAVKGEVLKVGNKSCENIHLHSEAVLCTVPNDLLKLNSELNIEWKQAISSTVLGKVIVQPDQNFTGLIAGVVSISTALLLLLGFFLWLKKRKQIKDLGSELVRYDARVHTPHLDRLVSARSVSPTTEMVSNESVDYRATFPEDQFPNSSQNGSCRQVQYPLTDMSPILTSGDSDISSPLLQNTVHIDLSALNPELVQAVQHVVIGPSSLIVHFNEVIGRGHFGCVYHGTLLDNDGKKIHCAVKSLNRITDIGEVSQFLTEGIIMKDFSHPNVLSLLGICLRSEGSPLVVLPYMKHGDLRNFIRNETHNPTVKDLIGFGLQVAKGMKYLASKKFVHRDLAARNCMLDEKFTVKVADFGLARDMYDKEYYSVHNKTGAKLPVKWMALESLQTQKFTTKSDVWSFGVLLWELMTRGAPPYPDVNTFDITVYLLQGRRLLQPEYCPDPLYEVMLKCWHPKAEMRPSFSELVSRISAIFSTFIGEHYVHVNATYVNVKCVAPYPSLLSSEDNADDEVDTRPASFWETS

Structure (SMILES)	IC50 (AXL)	IC50 (Met)
COc1cnc2c(Oc3ccc(NC(=O)c4cn(CCF)c(C)c(-c5ccsc5)c4=O)cc3F)ccnc2c1 [Compound 330, 1-(2-Fluoroethyl)-N-[3-fluoro-4-[(7-methoxy-1,5-naphthyridin-4-yl)oxy]phenyl]-6-methyl-4-oxo-5-thiophen-3-ylpyridine-3-carboxamide]	≤ 100 nM	≤ 100 nM
COc1cc2nccc(Oc3ccc(NC(=O)c4c(C)n(C)c(C)c(-c5ccco5)c4=O)cc3)c2nc1OC [Compound 164, N-[4-[(6,7-Dimethoxy-1,5-naphthyridin-4-yl)oxy]phenyl]-5-(furan-2-yl)-1,2,6-trimethyl-4-oxopyridine-3-carboxamide]	≤ 100 nM	≤ 100 nM
COc1cnc2c(Oc3ccc(NC(=O)c4c(C)n(C)c(C)c(-c5cccs5)c4=O)cc3)ccnc2c1 [Compound 165, N-[4-[(7-Methoxy-1,5-naphthyridin-4-yl)oxy]phenyl]-1,2,6-trimethyl-4-oxo-5-thiophen-2-ylpyridine-3-carboxamide]	≤ 100 nM	≤ 100 nM
C=C(C)c1ccc(-c2c(C)ncc(C(=O)Nc3ccc(Oc4ccnc5cc(OC)c(OC)nc45)c(F)c3)c2O)o1 [Compound 152, N-[4-[(6,7-Dimethoxy-1,5-naphthyridin-4-yl)oxy]-3-fluorophenyl]-4-hydroxy-6-methyl-5-(5-prop-1-en-2-ylfuran-2-yl)pyridine-3-carboxamide]	100 to 300 nM	100 to 300 nM
COCc1nc(C)c(-c2cccs2)c(O)c1C(=O)Nc1ccc(Oc2ccnc3cc(OC)c(OC)nc23)c(F)c1 [Compound 115, N-[4-[(6,7-Dimethoxy-1,5-naphthyridin-4-yl)oxy]-3-fluorophenyl]-4-hydroxy-2-(methoxymethyl)-6-methyl-5-thiophen-2-ylpyridine-3-carboxamide]	≤ 100 nM	≤ 100 nM
COc1cc2nccc(Oc3ccc(NC(=O)c4c(C)nc(C)c(-c5cc(C(F)(F)F)nn5C)c4O)cc3F)c2nc1OC [Compound 138]	≤ 100 nM	≤ 100 nM
COc1cnc2c(Oc3ccc(NC(=O)c4cn(CCF)c(C)c(-c5cccs5)c4=O)cc3F)ccnc2c1 [Compound 331, 1-(2-Fluoroethyl)-N-[3-fluoro-4-[(7-methoxy-1,5-naphthyridin-4-yl)oxy]phenyl]-6-methyl-4-oxo-5-thiophen-2-ylpyridine-3-carboxamide]	≤ 100 nM	≤ 100 nM

Continued, values first:

IC50 (AXL)	IC50 (Met)	Structure (SMILES)
≤ 100 nM	≤ 100 nM	COc1cc2nccc(Oc3ccc(NC(=O)c4c(C)ncc(-c5sccc5C)c4O)cc3F)c2nc1OC [Compound 126, N-[4-[(6,7-Dimethoxy-1,5-naphthyridin-4-yl)oxy]-3-fluorophenyl]-4-hydroxy-2-methyl-5-(3-methylthiophen-2-yl)pyridine-3-carboxamide]
≤ 100 nM	≤ 100 nM	COc1cc2nccc(Oc3ccc(NC(=O)c4c(C)ncc(-c5cc(C)cs5)c4O)cc3F)c2nc1OC [Compound 125, N-[4-[(6,7-Dimethoxy-1,5-naphthyridin-4-yl)oxy]-3-fluorophenyl]-4-hydroxy-2-methyl-5-(4-methylthiophen-2-yl)pyridine-3-carboxamide]
≤ 100 nM	≤ 100 nM	COc1cc2nccc(Oc3ccc(NC(=O)c4c(C)nc(C)c(-c5ccc(C)s5)c4O)cc3F)c2nc1OC [Compound 111, N-[4-[(6,7-Dimethoxy-1,5-naphthyridin-4-yl)oxy]-3-fluoro-phenyl]-4-hydroxy-2,6-dimethyl-5-(5-methyl-2-thienyl)pyridine-3-carboxamide]
≤ 100 nM	≤ 100 nM	COc1cc2nccc(Oc3ccc(NC(=O)c4c(C)ncc(-c5cccs5)c4O)cc3F)c2nc1OC [Compound 123, N-[4-[(6,7-Dimethoxy-1,5-naphthyridin-4-yl)oxy]-3-fluorophenyl]-4-hydroxy-2-methyl-5-thiophen-2-ylpyridine-3-carboxamide]
≤ 100 nM	≤ 100 nM	COc1cc2nccc(Oc3ccc(NC(=O)c4cnc(C)c(-c5cc(C)cs5)c4O)cc3F)c2nc1OC [Compound 91, N-[4-[(6,7-Dimethoxy-1,5-naphthyridin-4-yl)oxy]-3-fluoro-phenyl]-4-hydroxy-6-methyl-5-(4-methyl-2-thienyl) pyridine-3-carboxamide]
≤ 100 nM	≤ 100 nM	COc1cc2nccc(Oc3ccc(NC(=O)c4c(C)nc(C)c(-c5cccs5)c4O)cc3F)c2nc1OC [Compound 107]
≤ 100 nM	≤ 100 nM	COc1cc2nccc(Oc3ccc(NC(=O)c4cnc(C)c(-c5ccc(C)o5)c4O)cc3F)c2nc1OC [Compound 92, N-[4-[(6,7-Dimethoxy-1,5-naphthyridin-4-yl)oxy]-3-fluoro-phenyl]-4-hydroxy-6-methyl-5-(5-methyl-2-furyl)pyridine-3-carboxamide]
100 to 300 nM	≤ 100 nM	COc1cc2nccc(Oc3ccc(NC(=O)c4cnc(C)c(-c5cc(C)nn5C)c4O)cc3F)c2nc1OC [Compound 136, N-[4-[(6,7-Dimethoxy-1,5-naphthyridin-4-yl)oxy]-3-fluorophenyl]-5-(2,5-dimethylpyrazol-3-yl)-4-hydroxy-6-methylpyridine-3-carboxamide]
≤ 100 nM	≤ 100 nM	COc1cc2nccc(Oc3ccc(NC(=O)c4cnc(C)c(-c5nccs5)c4O)cc3F)c2nc1OC [Compound 143, N-[4-[(6,7-Dimethoxy-1,5-naphthyridin-4-yl)oxy]-3-fluorophenyl]-4-hydroxy-6-methyl-5-(1,3-thiazol-2-yl)pyridine-3-carboxamide]
